Counter-ions that a name gives are not always drawn.
Key:
hGPR38R [1] = molecular target: T1, hGPR38R (Homo sapiens, UniProt O43193); experiment: GPR38 FLIPR functional agonist assay; assay type: cell-based; design: expressed in transfected cells; settings: HEK-293 cells stably expressing the GPR38 receptor, agonist response, Fluo-4 fluorescence
Protocol: The potencies and efficacies of the compounds of this invention for GPR^38 can be determined by FLIPR assay performed on the human cloned receptor as described herein. It has been found, using the FLIPR functional assay, that compounds of formula (I) appear to be partial or full agonists of the GPR38 receptor.
GPR38FLIPR Functional Agonist Assay Protocol
HEK-293 cells stably expressing the GPR38 receptor were seeded (10,000 cells/well) into poly-D-lysine coated 384-well black-wall, clear-bottom microtitre plates (Becton Dickinson) 24 h prior to assay. On day of assay, cells were washed (×2) with 80 ul of assay buffer (Hanks Balanced Salts Solution (HBSS), 10 mM HEPES, 200 μM Ca^2+, 2.5 mM probenecid) using the EMBLA cell washer. After the final wash, buffer was aspirated to leave a residual volume of 30 ul on the cells. Cells were loaded with 1 μM (final) Fluo-4-AM fluorescent indicator dye (TefLabs) in assay buffer, (20 ul loading solution added to each well using the Multidrop). Plates were incubated for 1 h at 37° C., before being washed (×3) with 80 ul assay buffer using the EMBLA cell washer; 30 ul residual being left after the final wash. Plates were then assayed on a Fluorometric Imaging Plate Reader (FLIPR, Molecular Devices). Test compounds were prepared in assay buffer without probenecid, but containing 0.03% CHAPS. In the FLIPR, 10 ul of test compound was added to the cells and changes in fluorescence measured over a 2 min timeframe. Maximum change in fluorescence over baseline was used to determine agonist response and concentration response curves were constructed, using a 4-parameter logistic equation.
(§1) The following alternative procedure may also be used:
HEK-293 cells stably expressing the GPR38 receptor were seeded (30,000 cells/100 ul growth media/well) into poly-D-lysine coated 96-well black-wall, clear-bottom microtitre plates (Corning) 24 hours prior to assay. On the day of assay the cells were loaded with 2 μM (final) Fluo-4-AM fluorescent indicator dye (Molecular Probes) and 1 mM (final) probenicid in assay buffer (145 mM sodium chloride, 2.5 mM potassium chloride, 10 mM Hepes, 10 mM glucose, 1.2 mM magnesium chloride, 1.5 mM calcium chloride and 0.1% BSA) (50 ul loading solution added to each well). Plates were incubated for 1 hour at 25° C., before being washed 4 times with 100 ul assay buffer using the EMBLA cell washer; 150 ul residual being left after the final wash. The cells were then incubated at 25° C. for 20 minutes and the plates were then assayed on a Fluorometric Imaging Plate Reader (FLIPR, Molecular Devices). Test compounds were prepared in assay buffer without probenecid. In the FLIPR, 50 ul of test compound was added to the cells and changes in fluorescence measured over a 2 minute timeframe. Maximum change in fluorescence over baseline was used to determine agonist response and concentration response curves were constructed, using a 4-parameter logistic equation.
Target sequence in this assay (O43193 whole entry): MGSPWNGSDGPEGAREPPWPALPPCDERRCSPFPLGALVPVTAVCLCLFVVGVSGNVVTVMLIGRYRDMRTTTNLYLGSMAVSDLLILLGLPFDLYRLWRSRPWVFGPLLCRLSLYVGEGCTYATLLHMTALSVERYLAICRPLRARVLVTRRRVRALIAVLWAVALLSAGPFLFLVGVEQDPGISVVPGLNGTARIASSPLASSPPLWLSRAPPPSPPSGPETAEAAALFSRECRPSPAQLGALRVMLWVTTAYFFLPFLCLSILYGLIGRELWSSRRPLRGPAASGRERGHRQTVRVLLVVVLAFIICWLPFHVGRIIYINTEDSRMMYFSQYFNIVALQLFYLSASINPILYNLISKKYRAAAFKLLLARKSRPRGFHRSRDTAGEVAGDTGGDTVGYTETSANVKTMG

hGPR38R [2] = molecular target: T1, hGPR38R; experiment: GPR38 GTPγS functional agonist assay; assay type: biochemical; design: expressed in transfected cells; host or cells: HEK293 (transient transfection; P2 membrane fractions)
Protocol: The potencies and intrinsic activities of the compounds of this invention can also be determined according to the [35S]GTPγS functional assay which is described herein. It has been found, using the [35S]GTPγS functional assay, that compounds of formula (I) appear to be partial or full agonists of the GPR38 receptor.
GPR38GTPγS Functional Agonist Assay Protocol
For each compound being assayed, in an Opti clear bottom 96 well plate, is added:—
(a) 20 μl of test compound (or 10 μl of guanosine 5′-triphosphate (GTP) as non-specific binding control) diluted to required concentration in assay buffer (20 mM N-2-Hydroxyethylpiperazine-N′-2-ethanesulfonic acid (HEPES)+100 mM NaCl+10 mM MgCl2, pH adjusted to 7.4 with NaOH); (b) 60 μl bead/membrane/GDP mix prepared by suspending wheat germ agglutinin-polyvinyltoluene (WGA-PVT) scintillation proximity assay (SPA) beads at 100 mg/ml in assay buffer followed by mixing with membrane (prepared in accordance with the methodology described above) and diluting in assay buffer to give a final volume of 60 μl which contains 10 μg protein and 0.5 mg bead per well—mixture is pre-mixed at 4° C. for 30 min on a roller and just prior to addition to the plate, 10 μM final concentration of guanosine 5′ diphosphate (GDP—diluted in assay buffer) is added; (c) 20 μl guanosine 5′ [γ35-S]thiotriphosphate, triethylamine salt (Amersham; radioactivity concentration=37 kBq/μl or 1 mCi/ml; Specific Activity 1160 Ci/mmol) diluted to 1.9 nM in assay buffer to give 0.38 nM final.
The plate is incubated on a shaker at 25° C. for 30 min followed by centrifugation for 5 min at 1500 rpm. The plate is read between 3 and 6 h after completion of centrifuge run in a Wallac Microbeta counter on a 1 min normalised tritium count protocol. Data is analysed using a 4-parameter logistic equation. Basal activity used as minimum.
as §1
Target sequence in this assay (O43193 whole entry): as above
Target sequence in this assay (P09471 2-354 partner limits assumed): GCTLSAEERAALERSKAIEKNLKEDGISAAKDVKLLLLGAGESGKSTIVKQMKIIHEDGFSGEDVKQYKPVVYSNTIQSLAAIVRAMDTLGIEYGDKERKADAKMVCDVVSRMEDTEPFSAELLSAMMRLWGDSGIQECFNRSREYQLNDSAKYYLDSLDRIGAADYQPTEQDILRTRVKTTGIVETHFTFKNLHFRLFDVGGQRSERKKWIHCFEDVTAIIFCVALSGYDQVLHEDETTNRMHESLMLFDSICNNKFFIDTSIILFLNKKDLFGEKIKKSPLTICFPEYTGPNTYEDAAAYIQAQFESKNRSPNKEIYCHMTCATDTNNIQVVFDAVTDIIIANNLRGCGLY
Target sequence in this assay (P62873 2-340 partner limits assumed): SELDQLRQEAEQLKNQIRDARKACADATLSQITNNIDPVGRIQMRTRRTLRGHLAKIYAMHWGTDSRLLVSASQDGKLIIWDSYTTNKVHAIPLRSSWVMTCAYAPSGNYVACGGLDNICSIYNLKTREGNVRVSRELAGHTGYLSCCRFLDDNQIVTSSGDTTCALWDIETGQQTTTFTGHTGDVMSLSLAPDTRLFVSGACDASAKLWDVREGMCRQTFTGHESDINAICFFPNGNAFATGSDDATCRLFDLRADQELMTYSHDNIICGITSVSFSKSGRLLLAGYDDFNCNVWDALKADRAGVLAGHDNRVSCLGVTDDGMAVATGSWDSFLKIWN
Target sequence in this assay (P59768 2-68 partner limits assumed): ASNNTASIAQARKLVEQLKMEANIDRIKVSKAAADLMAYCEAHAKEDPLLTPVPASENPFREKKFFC
Membranes are derived from bulk cell cultures of HEK293 cell lines transiently transfected with hGPR38R and Go G-protein. P2 membranes fractions are prepared, aliquoted and stored at −80° C.
For each compound being assayed, the following is added into a white Greiner 384 well plate:—
(a) 1 μl of test compound diluted to required concentration in DMSO. (b) 20 μl bead/membrane/Saponin/GDP mix prepared as follows;—suspension of LEADseeker wheat germ agglutinin (WGA) scintillation proximity assay (SPA) beads at 25 mg/ml in assay buffer (20 mM N-2-Hydroxyethylpiperazine-N′-2-ethanesulfonic acid (HEPES)+100 mM NaCl+10 mM MgCl2, pH adjusted to 7.4 with KOH) containing saponin at 150 ug/ml. Mixing of bead suspension with membranes at 500 ug/ml (prepared in accordance with the methodology described above) and diluting in assay buffer to give a final volume of 20 μl which contains 5 μg protein and 0.25 mg bead per well.
Mixture is pre-mixed for 30 minutes on a roller and just prior to addition to the plate, 3 μM final assay concentration of guanosine 5′ diphosphate (GDP) (diluted in assay buffer) is added.
(c) 25 μl guanosine 5′ [γ35-S]thiotriphosphate, triethylamine salt (Amersham; radioactivity concentration=37 kBq/μl or 1 mCi/ml; Specific Activity 1160 Ci/mmol) diluted to 0.6 nM in assay buffer to give 0.33 nM final assay concentration.
The plate is then spun for 2 minutes at 1500 rpm and then incubated at room temperature for 4 hours. The plate is then read on a Viewlux Plux (Perkin Elmer). Data is analysed using a 4-parameter logistic equation.

[3] = read-out: pEC50 in the FLIPR assay (converted)
[4] = [35S]GTPγS SPA, HEK293 membranes with hGPR38R and Go G-protein, read-out: pEC50 in the GTPγS assay (converted)

## C[C@@H]1CN(Cc2ccc(-n3ccnc3C(=O)N3CCC(Nc4cccc(F)c4)CC3)cc2)C[C@H](C)N1 [Example 21, 1-{[1-(4-{[(3R,5S)-3,5-Dimethyl-1-piperazinyl]methyl}phenyl)-1H-imidazol-2-yl]carbonyl}-N-(3-fluorophenyl)-4-piperidinamine]
hGPR38R [1]; pEC50 in the FLIPR assay
  EC50: < 0.316 µM
hGPR38R [2]
  EC50: < 3.16 µM

## C[C@@H]1CN(Cc2ccc(-c3cccnc3C(=O)N3CCC(Nc4ccc(F)cc4)CC3)cc2F)C[C@H](C)N1 [Example 9, 1-{[3-(4-{[(3R,5S)-3,5-dimethyl-1-piperazinyl]methyl}-3-fluorophenyl)-2-pyridinyl]carbonyl}-N-(4-fluorophenyl)-4-piperidinamine]
hGPR38R [1]; pEC50 in the FLIPR assay
  EC50: < 0.316 µM
hGPR38R [2]
  EC50: < 3.16 µM

## COc1cc(NC2CCN(C(=O)c3ncccc3-c3ccc(CN4C[C@@H](C)N[C@@H](C)C4)c(F)c3)CC2)ccc1F [Example 28, 1-{[3-(4-{[(3R,5S)-3,5-dimethyl-1-piperazinyl]methyl}-3-fluorophenyl)-2-pyridinyl]carbonyl}-N-[4-fluoro-3-(methyloxy)phenyl]-4-piperidinamine]
hGPR38R [1]; [3]
  EC50: < 0.316 µM
hGPR38R [2]; [4]
  EC50: < 3.16 µM

## C[C@@H]1CN(Cc2ccc(-c3cccnc3S(=O)(=O)N3CCC(Nc4ccccc4F)CC3)cc2F)C[C@H](C)N1 [Example 20, 1-{[3-(4-{[(3R,5S)-3,5-Dimethyl-1-piperazinyl]methyl}-3-fluorophenyl)-2-pyridinyl]sulfonyl}-N-(2-fluorophenyl)-4-piperidinamine]
hGPR38R [1]; [3]
  EC50: < 1 µM
hGPR38R [2]; [4]
  EC50: < 3.16 µM

## C[C@@H]1CN(Cc2ccc(-c3cccnc3C(=O)N3CCC(Nc4ccc(F)cc4)CC3)cc2)C[C@H](C)N1 [Example 2, (3R,5S)-3,5-Dimethyl-1-({4-[2-({4-[(4-fluorophenyl)amino]piperidin-1-yl}carbonyl)pyridin-3-yl]phenyl}methyl)piperazine]
hGPR38R [1]; pEC50 in the FLIPR assay
  EC50: < 0.316 µM
hGPR38R [2]
  EC50: < 3.16 µM

## C[C@H]1CN(Cc2ccc(-c3cccnc3C(=O)N3CCC(Nc4cccc(F)c4)CC3)cc2)CCN1 [Example 14, N-(3-fluorophenyl)-1-{[3-(4-{[(3S)-3-methyl-1-piperazinyl]methyl}phenyl)-2-pyridinyl]carbonyl}-4-piperidinamine]
hGPR38R [1]; pEC50 in the FLIPR assay
  EC50: < 0.316 µM
hGPR38R [2]
  EC50: < 3.16 µM

## C[C@@H]1CN(Cc2ccc(-c3cccnc3C(=O)N3CCC(Oc4cccc(F)c4)CC3)cc2)C[C@H](C)N1 [Example 34, (3R,5S)-1-({4-[2-({4-[(3-fluorophenyl)oxy]-1-piperidinyl}carbonyl)-3-pyridinyl]phenyl}methyl)-3,5-dimethylpiperazine]
hGPR38R [1]; [3]
  EC50: < 0.316 µM
hGPR38R [2]; [4]
  EC50: < 3.16 µM

## C[C@@H]1CN(Cc2ccc(-c3cccnc3C(=O)N3CCC(Nc4ccc(F)cc4)C3)cc2)C[C@H](C)N1 (stereo partly drawn) [Example 16, 1-{[3-(4-{[(3R,5S)-3,5-dimethyl-1-piperazinyl]methyl}phenyl)-2-pyridinyl]carbonyl}-N-(4-fluorophenyl)-3-pyrrolidinamine]
hGPR38R [1]; [3]
  EC50: < 0.316 µM
hGPR38R [2]; [4]
  EC50: < 3.16 µM

## COc1cc(-c2cccnc2C(=O)N2CCC(Nc3ccc(F)cc3)CC2)ccc1CN1C[C@@H](C)N[C@@H](C)C1 [Example 17]
hGPR38R [1]; pEC50 in the FLIPR assay
  EC50: < 0.316 µM
hGPR38R [2]
  EC50: < 3.16 µM

## Cc1nc(CN(C)C(=O)CCc2ccc(F)cc2)c(-c2ccc(CN3C[C@@H](C)N[C@@H](C)C3)cc2)s1 [Example 6, N-{[5-(4-{[(3R,5S)-3,5-Dimethyl-1-piperazinyl]methyl}phenyl)-2-methyl-1,3-thiazol-4-yl]methyl}-3-(4-fluorophenyl)-N-methylpropanamide dihydrochloride]
hGPR38R [1]; [3]
  EC50: < 0.316 µM
hGPR38R [2]; [4]
  EC50: < 3.16 µM

## C[C@@H]1CN(Cc2ccc(-c3cccnc3C(=O)N3CCC(Nc4cccc(F)c4)CC3)cc2)C[C@H](C)N1 [Example 10, 1-{[3-(4-{[(3R,5S)-3,5-dimethyl-1-piperazinyl]methyl}phenyl)-2-pyridinyl]carbonyl}-N-(3-fluorophenyl)-4-piperidinamine]
hGPR38R [1]; pEC50 in the FLIPR assay
  EC50: < 0.316 µM
hGPR38R [2]
  EC50: < 3.16 µM

## C[C@H]1CN(Cc2ccc(-c3cccnc3C(=O)N3CCC(Nc4ccc(F)cc4)CC3)cc2)CCN1 [Example 8, N-(4-Fluorophenyl)-1-{[3-(4-{[(3S)-3-methyl-1-piperazinyl]methyl}phenyl)-2-pyridinyl]carbonyl}-4-piperidinamine]
hGPR38R [1]; pEC50 in the FLIPR assay
  EC50: < 0.316 µM
hGPR38R [2]
  EC50: < 3.16 µM

## C[C@@H]1CN(Cc2ccc(-c3cccnc3C(=O)N3CCC(Nc4cccc(F)c4)CC3)cc2F)C[C@H](C)N1 [Example 11, 1-{[3-(4-{[(3R,5S)-3,5-dimethyl-1-piperazinyl]methyl}-3-fluorophenyl)-2-pyridinyl]carbonyl}-N-(3-fluorophenyl)-4-piperidinamine]
hGPR38R [1]; pEC50 in the FLIPR assay
  EC50: < 0.316 µM
hGPR38R [2]
  EC50: < 3.16 µM

## C[C@@H]1CN(Cc2ccc(-c3cccnc3C(=O)N3CCC(Nc4ccc(F)c(F)c4)CC3)cc2F)C[C@H](C)N1 [Example 12, N-(3,4-difluorophenyl)-1-{[3-(4-{[(3R,5S)-3,5-dimethyl-1-piperazinyl]methyl}-3-fluorophenyl)-2-pyridinyl]carbonyl}-4-piperidinamine]
hGPR38R [1]; pEC50 in the FLIPR assay
  EC50: < 0.316 µM
hGPR38R [2]
  EC50: < 3.16 µM

## C[C@@H]1CN(Cc2ccc(-c3cccnc3C(=O)N3CCC(Nc4ccccc4F)CC3)cc2)C[C@H](C)N1 [Example 31, 1-{[3-(4-{[(3R,5S)-3,5-dimethyl-1-piperazinyl]methyl}phenyl)-2-pyridinyl]carbonyl}-N-(2-fluorophenyl)-4-piperidinamine]
hGPR38R [1]; pEC50 in the FLIPR assay
  EC50: < 1 µM
hGPR38R [2]
  EC50: < 3.16 µM

Source: patent US20080312209A1, “Piperazine Heteroaryl Derivatives as Gpr38 Agonists” (Glaxo Group Limited, priority 2005, published 2008)
